Earlier results, collected in patent US20250051594A1, “INKJET INK” (KYOCERA DOCUMENT SOLUTIONS INC., priority 2023, published 2025).
Where two headings read alike, the source gives them in different places.

Details: octanol/water partition coefficient of the organic solvent

LogKow | LogKow (listed as propylene glycol) | SMILES | LogKow (listed as ethylene glycolbutylethylether)
−1.24 |  | COC(C)COC(C)COC(C)CO (centres unmarked) [Tripropylene glycol monomethylether] | 
−1.75 |  | OCCOCCOCCO [Triethylene glycol] | 
−1.36 |  | CCCCOCC(C)O (centres unmarked) [Propylene glycol monobutylether] | 
−0.92 | higher than −1.00 | CC(O)CO (centres unmarked) [PG, propylene glycol] | 

The next lines start with the molecule.

SMILES | LogKow | LogKow (listed as propylene glycol) | LogKow (listed as ethylene glycolbutylethylether)
OCCOCCO [Diethylene glycol] | −1.47 |  | 
CCCCOCCOCC [EBEE, ethylene glycol butylethylether] | −1.88 |  | lower than −1.80
COCCOCCO [Diethylene glycol monomethylether] | −1.18 |  | 
OCCCO [1,3-propanediol] | −1.04 |  | 
CCCOC(C)COC(C)CO (centres unmarked) [Dipropylene glycol monopropylether] | −1.53 |  | 
COCCOCCOCCO [Triethylene glycol monomethylether] | −1.46 |  | 
CCCCOCCOCCOC [Diethylene glycolbutylmethylether] | −1.20 |  | 
OCC(O)CO [Glycerin] | −1.76 |  | 
